Experimental data: paper PMC3003779 (Chemistry & biology, 2010)

Tests used:
other serine hydrolases = assay: competitive activity-based protein profiling, ex vivo after i.p. dosing; format: in vivo, mouse; settings: 1 h
SHR and WKY rats [1] = assay: hemodynamic analysis with pressure-volume microcatheter; format: in vivo, rat; settings: 1 mg/kg i.v., 20 min
SHR and WKY rats [2] = assay: plasma norepinephrine; format: in vivo, rat; settings: 1 mg/kg i.v.
Mouse hepatocytes = assay: drug levels in hepatocyte suspensions by LC/MS/MS
CB2 receptors = biological target: T1, CB2 receptors (Rattus norvegicus, UniProt Q9QZN9); assay: radioligand displacement, [3H]CP,55940, rat spleen membranes
T1 sequence (Q9QZN9 1-360): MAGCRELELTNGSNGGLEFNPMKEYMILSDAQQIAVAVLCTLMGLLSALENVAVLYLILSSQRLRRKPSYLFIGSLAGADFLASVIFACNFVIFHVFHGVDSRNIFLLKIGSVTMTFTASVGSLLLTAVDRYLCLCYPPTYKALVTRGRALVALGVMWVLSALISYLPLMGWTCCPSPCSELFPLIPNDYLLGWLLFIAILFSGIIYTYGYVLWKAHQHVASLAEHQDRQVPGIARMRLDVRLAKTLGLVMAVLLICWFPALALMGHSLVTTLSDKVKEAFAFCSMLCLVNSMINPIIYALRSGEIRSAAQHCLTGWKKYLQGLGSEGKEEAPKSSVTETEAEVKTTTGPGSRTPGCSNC

O=S(=O)(F)CCCCCc1ccc(O)cc1 [AM3506, 5-(4-hydroxyphenyl)pentanesulfonyl fluoride]
activity of other serine hydrolases in brain (ABPP) (other serine hydrolases; mouse brain, 0.1 mg/kg i.p.): no change | liver unidentified ~58kD protein activity (ABPP) (other serine hydrolases; mouse liver, 1 mg/kg i.p.): partial inhibition | cardiac contractility (ESPVR) (SHR and WKY rats [1]; SHR): marked decrease | cardiac output (CO) (SHR and WKY rats [1]; SHR): decreases | dP/dtmax (SHR and WKY rats [1]; SHR): decreases | left ventricular end-systolic pressure (LVESP) (SHR and WKY rats [1]; SHR): decreases | LVESP, dP/dtmax, TPR and CO (SHR and WKY rats [1]; normotensive WKY): No changes | plasma norepinephrine after treatment (SHR and WKY rats [2]; WKY, baseline 198±11, remained unaffected): 167 ± 35 pg/mL | reduction of plasma norepinephrine (SHR and WKY rats [2]; anesthetized SHR, 30 min): 82±5% | plasma norepinephrine after treatment (SHR and WKY rats [2]; anesthetized SHR, 30 min, […]): 53 ± 12 pg/mL | recovery of drug from cell-free medium (Mouse hepatocytes; 0 to 30 min, no hepatocytes): remained constant | drug level in cell pellets, dense hepatocyte suspension (Mouse hepatocytes; 100 nM, 40 mg/mL): below threshold | drug level in medium, dense hepatocyte suspension (Mouse hepatocytes; 100 nM, 40 mg/mL): rapidly depleted from the medium | free drug (parent ion) still present in cell-free supernatant (Mouse hepatocytes; dilute hepatocyte suspension 1 mg/mL, 100 nM, 10 min, % of drug added at 0 min): 50–55% | Ki (CB2 receptors): 192 nM
